From US10364245B2 (CHIESI FARMACEUTICI S.p.A., priority 2017, dated 2019)
Where a name gives a salt, the structure may show the parent alone.

Experiments:
[1] = tested on: Peripheral Blood Mononuclear Cells (PBMCs), TNFα release; experiment: LPS-stimulated PBMC TNFα release assay; type: cell-based; settings: human PBMC, LPS (10 ng/ml), 18 h, compound 1 h before LPS; read-out: LPS-stimulated PBMC TNFα release inhibition
Outline: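 Human PBMCs from healthy donors, serum-starved 3 h, then pre-incubated 1 h at 37 °C with compound in 1% FBS medium before LPS (10 ng/ml) for 18 h. Supernatant TNFα measured by MSD; IC50 from dose-response as % inhibition of control, at least three experiments.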

p38 alpha = target: T1, p38 alpha (Homo sapiens, UniProt Q16539); experiment: P38 alpha enzyme inhibition assay (Alphascreen kinase activity assay); type: biochemical; settings: 100 pM p38 alpha, 2 hours preincubation at 25° C., 250 μM ATP, ATF-2 fusion protein; read-out: p38α inhibition
T1 construct: purchased Invitrogen PV3304
T1 sequence (Q16539 whole entry, the tested form may be a part): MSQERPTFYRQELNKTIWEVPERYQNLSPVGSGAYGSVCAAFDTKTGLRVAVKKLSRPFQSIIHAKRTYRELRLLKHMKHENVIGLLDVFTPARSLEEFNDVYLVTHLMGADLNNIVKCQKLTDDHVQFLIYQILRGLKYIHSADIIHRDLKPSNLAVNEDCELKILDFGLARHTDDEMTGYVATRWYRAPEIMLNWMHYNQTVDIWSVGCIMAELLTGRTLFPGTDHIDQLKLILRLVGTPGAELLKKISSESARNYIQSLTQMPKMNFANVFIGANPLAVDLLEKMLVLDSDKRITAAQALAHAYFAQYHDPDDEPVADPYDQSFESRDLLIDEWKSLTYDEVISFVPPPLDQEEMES
Outline: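 100 pM p38 alpha preincubated 2 h at 25 °C with compound and 0.3 μg/ml ATF-2 fusion substrate (HEPES pH 7.5, MgCl2, 1% DMSO). Reaction started with 250 μM ATP, run 1 h at 25 °C, stopped with EDTA; phospho-ATF2 detected by AlphaScreen luminescence. IC50 from concentration-response curves.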

Compound	IC50 (p38 alpha) [nM]	IC50 [1] [nM]
CC[C@H](C)c1nnc2ccc(O[C@@H]3CC[C@H](NC(=O)Nc4cc(C(=O)NCC(C)(C)N(C)C)nc(C(C)(C)C)c4)c4ccccc43)cn12 [Example 202, 6-(tert-Butyl)-4-(3-((1S,4R)-4-((3-((S)-sec-butyl)-[1,2,4]triazolo[4,3-a]pyridin-6-yl)oxy)-1,2,3,4-tetrahydronaphthalen-1-yl)ureido)-N-(2-(dimethylamino)-2-methylpropyl)-picolinamide formate salt]	1 to 10	1 to 5
CN(C)CC(C)(C)NC(=O)c1nc(NC(=O)N[C@H]2CC[C@@H](Oc3ccc4nnc(C(C)(C)C)n4c3)c3ccccc32)cc(C(C)(C)C)n1 [Example 112, 4-(tert-butyl)-6-(3-((1S,4R)-4-((3-(tert-butyl)-[1,2,4]triazolo[4,3-a]pyridin-6-yl)oxy)-1,2,3,4-tetrahydronaphthalen-1-yl)ureido)-N-(1-(dimethylamino)-2-methylpropan-2-yl)pyrimidine-2-carboxamide]	1 to 10	1 to 5
CN(C)C(C)(C)CNC(=O)c1nc(NC(=O)N[C@H]2CC[C@@H](Oc3ccc4nnc(C5(C)CCCC5)n4c3)c3ccccc32)cc(C(C)(C)C)n1 [Example 183, 4-(tert-butyl)-N-(2-(dimethylamino)-2-methylpropyl)-6-(3-((1S,4R)-4-((3-(1-methylcyclopentyl)-[1,2,4]triazolo[4,3-a]pyridin-6-yl)oxy)-1,2,3,4-tetrahydronaphthalen-1-yl)ureido)pyrimidine-2-carboxamide]	< 1	1 to 5
CN1CCC[C@@]1(C)c1nnc2ccc(O[C@@H]3CC[C@H](NC(=O)Nc4cc(C(=O)NCCO)nc(C(C)(C)C)c4)c4ccccc43)cn12 [Example 61, 6-(tert-Butyl)-4-(3-((1S,4R)-4-((3-((S)-1,2-dimethylpyrrolidin-2-yl)-[1,2,4]triazolo[4,3-a]pyridin-6-yl)oxy)-1,2,3,4-tetrahydronaphthalen-1-yl)ureido)-N-(2-hydroxyethyl)picolinamide]	1 to 10	1 to 5
CN(C)C1(CNC(=O)c2nc(NC(=O)N[C@H]3CC[C@@H](Oc4ccc5nnc(C(C)(C)C)n5c4)c4ccccc43)cc(C(C)(C)C)n2)CC1 [Example 159, 4-(tert-butyl)-6-(3-((1S,4R)-4-((3-(tert-butyl)-[1,2,4]triazolo[4,3-a]pyridin-6-yl)oxy)-1,2,3,4-tetrahydronaphthalen-1-yl)ureido)-N-((1-(dimethylamino)-cyclopropyl)methyl)-pyrimidine-2-carboxamide]	1 to 10	> 5
CNC(=O)c1cc(NC(=O)N[C@H]2CC[C@@H](Oc3ccc4nnc([C@]5(C)CCCN5C)n4c3)c3ccccc32)cc(C(C)(C)C)n1 [Example 53, 6-(tert-Butyl)-4-(3-((1S,4R)-4-((3-((S)-1,2-dimethylpyrrolidin-2-yl)-[1,2,4]triazolo[4,3-a]pyridin-6-yl)oxy)-1,2,3,4-tetrahydronaphthalen-1-yl)ureido)-N-methylpicolinamide]	1 to 10	1 to 5
COCC(C)(C)c1nnc2ccc(O[C@@H]3CC[C@H](NC(=O)Nc4cc(C(C)(C)C)nc(C(=O)NCCN(C)CCO)n4)c4ccccc43)cn12 [Example 123, 4-(tert-butyl)-N-(2-((2-hydroxyethyl)(methyl)-amino)ethyl)-6-(3-((1S,4R)-4-((3-(1-methoxy-2-methylpropan-2-yl)-[1,2,4]triazolo[4,3-a]pyridin-6-yl)oxy)-1,2,3,4-tetrahydronaphthalen-1-yl)ureido)pyrimidine-2-carboxamide]	< 1	1 to 5
CC(C)(C)c1cc(NC(=O)N[C@H]2CC[C@@H](Oc3ccc4nnc(C(C)(C)C)n4c3)c3ccccc32)cc(C(=O)NCCN2CC(O)C2)n1 [Example 197, 6-(tert-butyl)-4-(3-((1S,4R)-4-((3-(tert-butyl)-[1,2,4]triazolo[4,3-a]pyridin-6-yl)oxy)-1,2,3,4-tetrahydronaphthalen-1-yl)ureido)-N-(2-(3-hydroxyazetidin-1-yl)ethyl)picolinamide]	< 1	> 5

The next lines start with results.

IC50 (p38 alpha) [nM]	Compound	IC50 [1] [nM]
< 1	CN1CC[C@H](NC(=O)c2nc(NC(=O)N[C@H]3CC[C@@H](Oc4ccc5nnc(C(C)(C)C)n5c4)c4ccccc43)cc(C(C)(C)C)n2)C1 [Example 136, 4-(tert-butyl)-6-(3-((1S,4R)-4-((3-(tert-butyl)-[1,2,4]triazolo[4,3-a]pyridin-6-yl)oxy)-1,2,3,4-tetrahydronaphthalen-1-yl)ureido)-N-((S)-1-methylpyrrolidin-3-yl)pyrimidine-2-carboxamide]	> 5
< 1	CCC(CC)c1nnc2ccc(O[C@@H]3CC[C@H](NC(=O)Nc4cc(C(C)(C)C)nc(C(=O)NCCN(C)CCOC)n4)c4ccccc43)cn12 [Example 73, 4-(tert-butyl)-N-(2-((2-methoxyethyl)(methyl)amino)ethyl)-6-(3-((1S,4R)-4-((3-(pentan-3-yl)-[1,2,4]triazolo[4,3-a]pyridin-6-yl)oxy)-1,2,3,4-tetrahydronaphthalen-1-yl)ureido)pyrimidine-2-carboxamide]	1 to 5
< 1	COC1CN(CCNC(=O)c2nc(NC(=O)N[C@H]3CC[C@@H](Oc4ccc5nnc(C6(C)CC6)n5c4)c4ccccc43)cc(C(C)(C)C)n2)C1 [Example 138, 4-(tert-butyl)-N-(2-(3-methoxyazetidin-1-yl)ethyl)-6-(3-((1S,4R)-4-((3-(1-methylcyclopropyl)-[1,2,4]triazolo[4,3-a]pyridin-6-yl)oxy)-1,2,3,4-tetrahydronaphthalen-1-yl)ureido)pyrimidine-2-carboxamide]	> 5
1 to 10	COC(C)(C)c1nnc2ccc(O[C@@H]3CC[C@H](NC(=O)Nc4cc(C(C)(C)C)nc(C(=O)NCCN(C)C)n4)c4ccccc43)cn12 [Example 96, 4-(tert-butyl)-N-(2-(dunethylamino)ethyl)-6-(3-((1S,4R)-4-((3-(2-methoxypropan-2-yl)-[1,2,4]triazolo[4,3-a]pyridin-6-yl)oxy)-1,2,3,4-tetrahydronaphthalen-1-yl)ureido)pyrimidine-2-carboxamide]	1 to 5
< 1	CCC(C)(C)c1nnc2ccc(O[C@@H]3CC[C@H](NC(=O)Nc4cc(C(C)(C)C)nc(C(=O)NCCN5CCOCC5)n4)c4ccccc43)cn12 [Example 131, 4-(tert-butyl)-N-(2-morpholinoethyl)-6-(3-((1S,4R)-4-((3-(tert-pentyl)-[1,2,4]triazolo[4,3-a]pyridin-6-yl)oxy)-1,2,3,4-tetrahydronaphthalen-1-yl)ureido)pyrimidine-2-carboxamide]	1 to 5
< 1	CCC(CC)c1nnc2ccc(O[C@@H]3CC[C@H](NC(=O)Nc4cc(C(C)(C)C)nc(C(=O)NCCN5CC(OC)C5)n4)c4ccccc43)cn12 [Example 6, 4-(tert-Butyl)-N-(2-(3-methoxyazetidin-1-yl)ethyl)-6-(3-((1S,4R)-4-((3-(pentan-3-yl)-[1,2,4]triazolo[4,3-a]pyridin-6-yl)oxy)-1,2,3,4-tetrahydronaphthalen-1-yl)ureido)pyrimidine-2-carboxamide]	1 to 5
1 to 10	COCCN(C)CCNC(=O)c1nc(NC(=O)N[C@H]2CC[C@@H](Oc3ccc4nnc(C5CCCC5)n4c3)c3ccccc32)cc(C(C)(C)C)n1 [Example 76, 4-(tert-butyl)-6-(3-((1S,4R)-4-((3-cyclopentyl-[1,2,4]triazolo[4,3-a]pyridin-6-yl)oxy)-1,2,3,4-tetrahydronaphthalen-1-yl)ureido)-N-(2-((2-methoxyethyl)(methyl)-amino)ethyl)pyrimidine-2-carboxamide]	> 5
< 1	CCN(CC)c1nnc2ccc(O[C@@H]3CC[C@H](NC(=O)Nc4cc(C(C)(C)C)nc(C(=O)NCCN(C)C)n4)c4ccccc43)cn12 [Example 142, 4-(tert-butyl)-6-(3-((1S,4R)-4-((3-(diethylamino)-[1,2,4]triazolo[4,3-a]pyridin-6-yl)oxy)-1,2,3,4-tetrahydronaphthalen-1-yl)ureido)-N-(2-(dimethylamino)ethyl)-pyrimidine-2-carboxamide]	1 to 5
< 1	CC(C)(C)c1cc(NC(=O)N[C@H]2CC[C@@H](Oc3ccc4nnc(C(C)(C)C)n4c3)c3ccccc32)nc(C(=O)NCCN2CCOCC2)n1 [Example 68, 4-(tert-butyl)-6-(3-((1S,4R)-4-((3-(tert-butyl)-[1,2,4]triazolo[4,3-a]pyridin-6-yl)oxy)-1,2,3,4-tetrahydronaphthalen-1-yl)ureido)-N-(2-morpholinoethyl)pyrimidine-2-carboxamide]	1 to 5
< 1	CN1CCN(CCNC(=O)c2nc(NC(=O)N[C@H]3CC[C@@H](Oc4ccc5nnc(C(C)(C)C)n5c4)c4ccccc43)cc(C(C)(C)C)n2)CC1 [Example 119, 4-(tert-butyl)-6-(3-((1S,4R)-4-((3-(tert-butyl)-[1,2,4]triazolo[4,3-a]pyridin-6-yl)oxy)-1,2,3,4-tetrahydronaphthalen-1-yl)ureido)-N-(2-(4-methylpiperazin-1-yl)ethyl)pyrimidine-2-carboxamide]	> 5
1 to 10	CN(C)CCNC(=O)c1nc(NC(=O)N[C@H]2CC[C@@H](Oc3ccc4nnc(CC(C)(C)C)n4c3)c3ccccc32)cc(C(C)(C)C)n1 [Example 59, 4-(tert-Butyl)-N-(2-(dimethylamino)ethyl)-6-(3-((1S,4R)-4-((3-neopentyl-[1,2,4]triazolo[4,3-a]pyridin-6-yl)oxy)-1,2,3,4-tetrahydronaphthalen-1-yl)ureido)pyrimidine-2-carboxamide]	> 5
